From patent US9085536B2, “Aconitine compounds, compositions, uses, and preparation thereof” (priority 2011, dated 2015)
Read-outs that look alike come from different tables or passages of the source.

Assays:
[1] = biological target: T1, rNaV1.4 expressed in CHO cells (Rattus norvegicus, UniProt P15390); experiment: Na+ current block at steady state, whole-cell patch clamp with pulse trains; type: cell-based; settings: for depolarizing pulses required to reach steady-state block: 10 Hz pulse trains
T1 construct: expressed in transfected cells; host or cells: CHO cells
T1 sequence (P15390 whole entry): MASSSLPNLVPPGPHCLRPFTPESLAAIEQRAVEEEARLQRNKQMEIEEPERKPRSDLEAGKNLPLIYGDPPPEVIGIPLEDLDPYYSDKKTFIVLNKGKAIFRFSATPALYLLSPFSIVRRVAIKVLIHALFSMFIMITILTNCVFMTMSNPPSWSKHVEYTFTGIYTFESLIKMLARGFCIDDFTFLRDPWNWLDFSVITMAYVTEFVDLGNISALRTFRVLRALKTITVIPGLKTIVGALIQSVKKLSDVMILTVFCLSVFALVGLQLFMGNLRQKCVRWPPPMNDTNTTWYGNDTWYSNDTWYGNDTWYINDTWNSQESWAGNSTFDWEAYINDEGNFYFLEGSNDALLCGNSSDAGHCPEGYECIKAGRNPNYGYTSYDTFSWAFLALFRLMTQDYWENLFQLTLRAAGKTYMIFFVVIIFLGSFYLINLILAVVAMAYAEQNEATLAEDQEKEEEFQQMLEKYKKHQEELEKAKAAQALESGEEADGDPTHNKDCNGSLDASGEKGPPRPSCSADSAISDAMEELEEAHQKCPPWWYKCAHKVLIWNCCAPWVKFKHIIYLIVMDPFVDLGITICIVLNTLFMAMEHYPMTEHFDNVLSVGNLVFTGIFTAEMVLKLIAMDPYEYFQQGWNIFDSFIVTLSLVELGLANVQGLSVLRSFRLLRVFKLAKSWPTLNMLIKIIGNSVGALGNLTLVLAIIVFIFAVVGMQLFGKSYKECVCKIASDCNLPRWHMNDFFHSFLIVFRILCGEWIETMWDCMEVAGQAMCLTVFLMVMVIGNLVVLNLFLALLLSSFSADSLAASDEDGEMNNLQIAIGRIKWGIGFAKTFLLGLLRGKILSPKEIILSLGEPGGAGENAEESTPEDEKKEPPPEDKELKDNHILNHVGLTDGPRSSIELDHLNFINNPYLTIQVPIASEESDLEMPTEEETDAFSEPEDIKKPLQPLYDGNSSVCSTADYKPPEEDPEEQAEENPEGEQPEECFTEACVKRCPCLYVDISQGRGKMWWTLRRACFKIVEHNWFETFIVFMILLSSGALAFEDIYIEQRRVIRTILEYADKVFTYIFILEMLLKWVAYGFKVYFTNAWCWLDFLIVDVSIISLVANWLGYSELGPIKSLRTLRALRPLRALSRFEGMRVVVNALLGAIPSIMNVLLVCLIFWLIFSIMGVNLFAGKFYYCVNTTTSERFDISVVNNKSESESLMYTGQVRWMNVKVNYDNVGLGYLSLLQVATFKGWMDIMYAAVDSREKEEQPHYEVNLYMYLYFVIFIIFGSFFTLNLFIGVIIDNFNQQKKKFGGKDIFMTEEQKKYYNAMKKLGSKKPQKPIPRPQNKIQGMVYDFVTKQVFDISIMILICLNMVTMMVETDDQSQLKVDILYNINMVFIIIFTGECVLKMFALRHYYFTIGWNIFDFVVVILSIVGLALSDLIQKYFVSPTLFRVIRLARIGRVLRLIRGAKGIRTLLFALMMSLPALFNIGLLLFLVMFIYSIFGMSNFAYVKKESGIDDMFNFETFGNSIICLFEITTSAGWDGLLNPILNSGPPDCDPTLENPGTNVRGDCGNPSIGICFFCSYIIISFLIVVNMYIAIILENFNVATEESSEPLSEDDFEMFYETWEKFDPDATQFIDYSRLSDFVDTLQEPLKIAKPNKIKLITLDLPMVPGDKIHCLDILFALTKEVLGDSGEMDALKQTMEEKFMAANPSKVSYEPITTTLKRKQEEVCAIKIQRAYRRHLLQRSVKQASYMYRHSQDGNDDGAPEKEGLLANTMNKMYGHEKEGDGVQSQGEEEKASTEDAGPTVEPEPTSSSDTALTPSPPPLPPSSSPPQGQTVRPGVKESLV
Protocol: Binding of aconitine to NaV is use-dependent and is known to result both in a left shift of the current-voltage (I-V) relationship and in partial block of the channel. […] To determine whether aconitine binding is reversible, two experiments were designed. First, as block by aconitine is known to be use dependent, peak current was measured as a function of pulse number in the presence of two different concentrations of aconitine. Since aconitine binds preferentially to the open state of the sodium channel, a pulse train was applied sequentially with a control pulse used to record peak current. The pulse train consisted of a series of 50 depolarizing pulses (from −100 mV holding potential to 0 mV, 10 ms duration) applied at 10 Hz frequency, while the control pulse consisted of a single depolarizing pulse (from −100 mV holding potential to 0 mV test potential, 10 ms duration).
Pulse trains of 10 Hz frequency and control pulses were applied sequentially to cells expressing rNaV1.4, and currents elicited from the control pulse were recorded after each pulse train. This process was repeated until the current elicited from the control pulse had reached a steady state and was no longer decreasing with each additional pulse train. If block were irreversible, this steady state current would be expected to be independent of toxin concentration—the toxin would not be able to dissociate from its receptor, and the number of toxin molecules is much greater than the number of sodium channels (assuming a 100 μL chamber containing 1000 CHO cells, each expressing 10,000 sodium channels, at 50 μM concentration toxin molecules outnumber receptors by a factor of 3×10^8:1), therefore, all receptors would eventually reach the bound state.
Block by aconitine is known to be use-dependent, therefore the use-dependence of the C14 derivatives of aconitine was evaluated. Peak Na current was measured as a function of pulse number in the presence of different concentrations of the molecules. […] Since aconitine binds preferentially to the open state of the sodium channel, a pulse train was applied sequentially with a control pulse used to record peak current. The pulse train consisted of a series of 50 depolarizing pulses (from −100 mV holding potential to 0 mV, 10 ms duration) applied at 10 Hz frequency, while the control pulse consisted of a single depolarizing pulse (from −100 mV holding potential to 0 mV test potential, 10 ms duration).
Pulse trains of 10 Hz frequency and control pulses were applied sequentially to CHO cells expressing rNaV1.4, and currents elicited from the control pulse were recorded after each pulse train. This process was repeated until the current elicited from the control pulse had reached a steady state and was no longer decreasing with each additional pulse train. If block were irreversible, this steady state current would be expected to be independent of toxin concentration—the toxin would not be able to dissociate from its receptor, and the number of toxin molecules is much greater than the number of sodium channels, therefore, all receptors would eventually reach the bound state.
The ability of the synthesized aconitine derivatives to block NaV channels was evaluated with patch-clamp experiments in the whole-cell configuration on CHO cells expressing rNaV1.4 heterologously. A buffer solution containing the toxin was applied to the cells, whole-cell Na^+ currents were recorded until the decreasing current reached a steady-state (300 to 3000 pulses, depending on the molecules and concentrations). The peak Na^+ currents were measured with a depolarizing test pulse (from −100 mV holding potential to 0 mV test potential, 10 ms duration).

[2] = biological target: T1, rNaV1.4 expressed in CHO cells; experiment: Steady-state inactivation, whole-cell recording, Boltzmann fit; type: cell-based
Protocol: . The channels were modified by perfusing the cells with buffered solution containing aconitine at the given concentrations and then simple pulses (10 ms pulses to 0 mV from −100 mV holding potential) were recorded until the currents leveled to a steady value (typically ˜1000 pulses). Steady-state fast inactivation of the current was then determined by delivering 500 ms conditioning pulses to potentials ranging from −130 to −11 mV (7 my increments) immediately followed by a 10 ms test pulse to 0 mV to test the available current. The peak current measured during the test pulse was normalized to the maximum peak current recorded in the conditioning pulses. […] Midpoint voltage V0.5 represents the membrane potential at which half maximum current is observed; slope factor at midpoint k quantifies the rate at which the inactivation response occurs.

[3] = total dose; cited from earlier work
[4] = biological target: T1, rNaV1.4 expressed in CHO cells; type: cell-based
Protocol: […] […] It is noteworthy that little or no increase in current was observed during wash off when no depolarizing pulses were applied and peak current was measured as a function of time.
Since the molecules bind to the open-state of the Nav channel their release also requires activation pulses. In typical experiments, buffered external solution was perfused and a pulse train sequence was applied to the patch-clamp until the current reached a steady-state for at least two minutes.

[5] = biological target: T1, rNaV1.4 expressed in CHO cells; experiment: Activation: current-voltage (I-V) and conductance-voltage (G-V) relationship, whole-cell recording; type: cell-based; settings: 50 μM
Protocol: To determine if the shift in I-V relationship is affected by the aromaticity of the aconitine C14 benzoate, current-voltage relationships were recorded for control cells expressing NaV, those that had been modified by aconitine, and those that had been modified by aconitine C14-cyclohexanoate 4.8d. For the modified channels, solutions of 50 μM concentration of the respective toxins were perfused onto the cells, and then depolarizing pulses were applied until a steady state current was observed, generally requiring about 1000 pulses. At that time, current-voltage relationships were again recorded. […] A shift towards hyperpolarizing potentials is clearly observed in both cases. Currents recorded at −50 mV are highlighted for all three experiments.
To determine the effect on current-voltage (I-V) relationship of the aconitine derivatives, whole cell currents were recorded in cells expressing NaV in the presence of aconitine derivatives. Control I-V plots were recorded with unmodified NaV1.4, to which were compared NaV channels modified by aconitine as well as by selected analogs. For the modified channels, solutions of the respective toxins were perfused onto the cells, and then depolarizing pulses were applied until a steady state current was observed, generally requiring about 1000 pulses. A sequence of test pulses was then recorded to determine the current-voltage relationships (using a step protocol in which CHO cells were depolarized for 10 ms from a holding potential of −100 mV to a range of potentials from −95 mV to +30 mV in 5 or 10 mV increments; peak currents were normalized to the maximum peak current and plotted against voltage).

## CCN1CC2(COC)C3C(OC)C4C1C3(C1C[C@@]3(O)[C@H](OC(=O)c5ccccc5)[C@@H]1[C@]4(OC(C)=O)[C@@H](O)[C@@H]3OC)[C@@H](OC)C[C@H]2O (some centres unmarked) [Aconitine, aconitine]
[1]
  peak current blocked at steady state: 40%
[1]; 5 μM
  % Remaining current after reaching steady-state binding: 40%
[1]; 20 μM
  % Remaining current after reaching steady-state binding: 19%
  peak current blocked at steady state: 81%
  depolarizing pulses required to reach steady-state block: around 600 pulses
[1]; 20 μM, before wash-off
  Current measured at 20 μM (%): 19%
[1]; 50 μM
  % Remaining current after reaching steady-state binding: 13%
  peak current blocked at steady state: 83%
  depolarizing pulses required to reach steady-state block: approximately 800 pulses
[1]; 50 μM, listed as aconitine
  % Remaining current after reaching steady-state binding: 15%
[1]; 75 μM
  % Remaining current after reaching steady-state binding: 13%
  peak current blocked at steady state: 87%
  depolarizing pulses required to reach steady-state block: 800 pulses
[1]; 75 μM, before wash-off
  Current measured at 75 μM (%): 13%
[1]; 200 μM
  % Remaining current after reaching steady-state binding: 5%
  peak current blocked at steady state: approximately 94%
  depolarizing pulses required to reach steady-state block: 300 pulses
[1]; 5 (unit not printed)
  depolarizing pulses required to reach steady-state block: over 2500 pulses
[2]; 5 μM
  Steady-state inactivation V0.5 (mV): −65.1 mV
  Steady-state inactivation k (slope factor at midpoint): 6.50
[2]; 50 μM
  Steady-state inactivation V0.5 (mV): −65 mV
  Steady-state inactivation k (slope factor at midpoint): 5.97
[2]; 200 μM
  Steady-state inactivation V0.5 (mV): −82.4 mV
  Steady-state inactivation k (slope factor at midpoint): 21.0
[3]
  lethal doses in humans, estimated: 1 to 5 mg
[4]; after 200 μM and 1000 depolarizing pulses, toxin-free buffer with pulses
  current restoration during wash off: significant current restoration
[4]; after wash-off of 20 μM
  Current after wash-off (%): 94%
[4]; after wash-off of 75 μM
  Current after wash-off (%): 62%
[5]
  Activation V0.5 (mV): −40.3 mV
  Activation hg: 10.4
  membrane potential at which maximum inward Na current occurs: around −10 mV
[5]; after about 1000 pulses, no current in control cells
  current at −50 mV: substantial currents
